Measurements from the supplement of paper PMC13380429.

What was measured:
Details in all cases: 72 h
[1] = system: Calu-3; experiment: cell viability relative to DMSO; higher = less toxic
[2] = system: U2OS; experiment: as above
[3] = system: Caco-2; experiment: as above
[4] = system: HepG2; experiment: as above
[5] = system: Calu-3; experiment: drug sensitivity score (DSS) for viability; higher = more toxic; extreme values may be limits of the assay
[6] = system: U2OS; experiment: as above
[7] = system: Caco-2; experiment: as above
[8] = system: HepG2; experiment: as above
[9] = system: Calu-3; experiment: relative viability EC50 (midpoint between 100% and the lowest measured viability); higher = less toxic
[10] = system: HepG2; experiment: as above
[11] = system: Vero E6; experiment: cell viability relative to DMSO; higher = less toxic
[12] = system: Vero E6; experiment: drug sensitivity score (DSS) for viability; higher = more toxic; extreme values may be limits of the assay
[13] = system: Vero E6; experiment: relative viability EC50 (midpoint between 100% and the lowest measured viability); higher = less toxic
[14] = system: U2OS; experiment: as above

Row | Structure (SMILES) | cell viability ([1]; 1 nM) | cell viability ([1]; 10 nM) | cell viability ([1]; 100 nM) | cell viability ([1]; 1000 nM) | cell viability ([1]; 10000 nM) | cell viability ([2]; 1 nM) | cell viability ([2]; 10 nM) | cell viability ([2]; 100 nM) | cell viability ([2]; 1000 nM) | cell viability ([2]; 10000 nM) | cell viability ([3]; 1 nM) | cell viability ([3]; 10 nM) | cell viability ([3]; 100 nM) | cell viability ([3]; 1000 nM) | cell viability ([3]; 10000 nM) | cell viability ([4]; 1 nM) | cell viability ([4]; 10 nM) | cell viability ([4]; 100 nM) | cell viability ([4]; 1000 nM) | cell viability ([4]; 10000 nM) | drug sensitivity score [5] | drug sensitivity score [6] | drug sensitivity score [7] | drug sensitivity score [8] | relative viability EC50 [9] | relative viability EC50 [10] | cell viability ([11]; 1 nM) | cell viability ([11]; 10 nM) | cell viability ([11]; 100 nM) | cell viability ([11]; 1000 nM) | cell viability ([11]; 10000 nM) | drug sensitivity score [12] | relative viability EC50 [13] | relative viability EC50 [14]
1 | CC(C)(C)c1cc(C(=O)/C=C/c2ccc(C(=O)O)cc2)cc(C(C)(C)C)c1 [CH55] | 92% | 92.1% | 76.9% | 87.5% | 77.8% | 98.2% | 97.3% | 91% | 97.7% | 64.4% | 102% | 87.3% | 90.8% | 93.3% | 67% | 109% | 113% | 120% | 105% | 91.9% | 4.3 | 2 | 2.4 | 0 | > 10000 nM | > 10000 nM | – | – | – | – | – | – | – | –
2 | c1ccc(-c2cnn3cc(-c4ccc(OCCN5CCOCC5)cc4)cnc23)cc1 [DMH4] | 101% | 107% | 89.6% | 114% | 85.9% | 102% | 101% | 99.6% | 98.6% | 80.8% | 105% | 97.9% | 93.6% | 96.1% | 74.3% | 96.4% | 95.1% | 98.2% | 91.5% | 50.7% | 0 | 0.7 | 1.6 | 4 | > 10000 nM | – | 97.1% | 101% | 101% | 91.4% | 104% | 0 | > 10000 nM | > 10000 nM
3 | COc1cc(C=O)c([N+](=O)[O-])cc1OC [DMNB] | 102% | 102% | 103% | 96.9% | 107% | – | – | – | – | – | – | – | – | – | – | – | – | – | – | – | 0 | – | – | – | > 10000 nM | – | 103% | 100% | 99.2% | 96.9% | 96.6% | 0 | > 10000 nM | –
4 | O=C1c2ccccc2C(Cc2ccnc(F)c2)(Cc2ccnc(F)c2)c2ccccc21 [DMP-543] | 103% | 92.1% | 85.9% | 92% | 81.3% | 99.8% | 105% | 96% | 96.6% | 95.1% | 97.2% | 100% | 92.5% | 81.2% | 72.9% | 90.1% | 100% | 94.4% | 95.4% | 89.4% | 1.7 | 0 | 3.3 | 0 | > 10000 nM | > 10000 nM | 101% | 101% | 100% | 97.7% | 94.8% | 0 | > 10000 nM | > 10000 nM
5 | O=C(/C=C\n1cnc(-c2cc(C(F)(F)F)cc(C(F)(F)F)c2)n1)N1CC(F)(F)C1 [KPT-276] | 97.3% | 102% | 97.2% | 64.1% | 68.3% | 106% | 96% | 91.4% | 68% | 17.3% | 104% | 91.2% | 88.8% | 73.9% | 66.2% | 100% | 85.5% | 80% | 44.4% | 32.8% | 6.7 | 8.2 | 5.4 | 12.8 | – | 190 nM | 93.5% | 96.1% | 82.3% | 69.8% | 36.9% | 8.1 | 611 nM | 1300 nM
6 | O=C(c1cccc(Cl)c1F)N1CCN(Cc2cccc(Nc3nccs3)n2)CC1 [MK-8745] | 92.6% | 88.5% | 92% | 85.1% | 92.2% | 102% | 99.5% | 98.5% | 98.4% | 69.1% | 92.1% | 94.2% | 91.7% | 86.5% | 70.7% | 105% | 115% | 101% | 54.7% | 37.7% | 0 | 1.6 | 2.8 | 8.7 | > 10000 nM | 676 nM | 99.2% | 101% | 99% | 90.2% | 78% | 1.6 | > 10000 nM | –
7 | CC(C)NC(=O)N1CC[C@H](NC2=Nc3cc(F)ccc3N(CC(F)F)c3ccc(Cl)cc32)C1 [NVS-PAK1-1] | 103% | 112% | 91.9% | 90% | 44.8% | 104% | 104% | 98.7% | 93.4% | 51.3% | 84.8% | 120% | 90.9% | 110% | 56.4% | 108% | 104% | 93.6% | 97.3% | 93.4% | 4.6 | 3.7 | 1.7 | 0 | 1820 nM | > 10000 nM | 99.8% | 101% | 108% | 92.3% | 31.4% | 5 | 2240 nM | –
8 | CC(=O)/N=c1/[nH]c(C)c(-c2ccc(Cl)c(S(=O)(=O)NCCO)c2)s1 [PIK-93] | 103% | 102% | 91% | 81.2% | 41.9% | 102% | 106% | 98.1% | 90.8% | 58.6% | 94% | 109% | 92.5% | 93.5% | 58.9% | 91.8% | 92.7% | 83.9% | 71.6% | 34.7% | 5.3 | 3.6 | 3.2 | 7.8 | 1490 nM | 744 nM | 106% | 105% | 99% | 96.9% | 78.6% | 1.1 | > 10000 nM | –
